What all share (experiment): inhibition of tumour cell growth, NCI panel, 48 h
Experiment [1] deals with ACHN.
For experiment [2], the system named is COLO 205.
Experiment [3] has as its system DU-145.
Experiment [4] has as its system M14.
Experiment [5] concerns MDA-MB-435.
The test system of experiment [6] is Malme-3M.
For experiment [7], the system named is NCI-H226.
For experiment [8], the system named is RXF 393.
The subject of experiment [9] is SF-268.
The test system of experiment [10] is SF-539.
Experiment [11] has as its system SK-MEL-5.
The subject of experiment [12] is SK-OV-3.
The subject of experiment [13] is SNB-75.
The subject of experiment [14] is TK-10.
Experiment [15] deals with CCRF-CEM.
In experiment [16] the test system is HCT-116.
In experiment [17] the test system is HT-29.
Experiment [18] has as its system MOLT-4.
Experiment [19] deals with SR.

The results in this text go back to ChEMBL document CHEMBL1201862, “PubChem BioAssay data set” (2004).

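Results reflect a 48-hour exposure of cells in 96-well plates to compound at five concentrations. Abbreviation: GI50, concentration required for 50% inhibition of growth.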 The source made the active and inactive calls. No stated cut-off is given here; in the data, active = GI50 up to about 1.1 µM and inactive = higher.

As for `O=C(O)CN1CCCC(Cc2c[nH]c3ccccc23)C1` (stereo not drawn), the GI50 in [1], in experiment [2], in experiment [3], in [4], in [5] and in experiment [6] was > 100 µM (inactive) in each case. Moreover, the GI50 in [7], in [8], in experiment [9], in experiment [10], in experiment [11] and in [12] was > 100 µM (inactive) in each case. For the same compound, the GI50 in [13] and in experiment [14] was > 100 µM (inactive) each time.

Consider `O=C(O)c1cccc2cccc(-c3c4ccc(=O)cc-4oc4cc(O)ccc34)c12`, for which the GI50 in experiment [1] was > 100 µM (inactive); in [15], 69.2 µM (inactive); in experiment [2], 98.6 µM (inactive); in [3] it was > 100 µM (inactive); in experiment [16], > 100 µM (inactive); in experiment [17], > 100 µM (inactive). Also, the GI50 in [4] is > 100 µM (inactive); in experiment [5], > 100 µM (inactive); in experiment [18], 27.3 µM (inactive); in [6] it was > 100 µM (inactive); in [8], > 100 µM (inactive); in experiment [9] it was > 100 µM (inactive). The GI50 was > 100 µM (inactive) in experiment [10]; > 100 µM (inactive) in experiment [11]; 33.4 µM (inactive) in [12]; 60.1 µM (inactive) in experiment [13]; > 100 µM (inactive) in experiment [14].

For the compound `CC1CC2C3CC(F)C4=CC(=O)C=CC4(C)C3(F)C(O)CC2(C)C1(O)C(=O)COC(=O)C(C)(C)C` (stereo not drawn), the GI50 was 32.7 µM (inactive) in experiment [1]; 0.0203 µM (active) in experiment [15]; > 100 µM (inactive) in experiment [2]; > 100 µM (inactive) in experiment [16]; > 100 µM (inactive) in experiment [17]; > 100 µM (inactive) in experiment [4]. Besides, the GI50 in experiment [18] was 66.2 µM (inactive); in experiment [6], > 100 µM (inactive); in experiment [7] it was > 100 µM (inactive); in experiment [8], 18.7 µM (inactive); in experiment [9], 64.4 µM (inactive); in experiment [10] it was 87.5 µM (inactive). For the same compound, the GI50 in experiment [11] is > 100 µM (inactive); in experiment [13], 82.2 µM (inactive); in [19], > 100 µM (inactive); in experiment [14], 77.1 µM (inactive).

With `O=C1c2ccccc2C(=O)c2c1ccc1c2N=C(c2ccc(F)cc2)CC(c2ccc(Cl)c(Cl)c2)N1` (stereo not drawn), the GI50 in experiment [1] is 13.9 µM (inactive); in [15], 2.13 µM (inactive); in experiment [2] it was 18.1 µM (inactive); in [16] it was 11.5 µM (inactive); in experiment [17], 13.5 µM (inactive); in experiment [4], 18.2 µM (inactive). In addition, the GI50 in experiment [18] is 7.43 µM (inactive); in experiment [7], 22.2 µM (inactive); in experiment [9] it was 15.2 µM (inactive); in experiment [10] it was 19.3 µM (inactive); in [11], 15.6 µM (inactive); in [12] it was 12.7 µM (inactive). Besides, the GI50 was 20.5 µM (inactive) in experiment [13], 5.93 µM (inactive) in experiment [19] and 13.8 µM (inactive) in experiment [14].

Turning to `CCC1C[N+]23CCc4c([nH]c5ccccc45)C2CC1CC3` (stereo not drawn), the GI50 in experiment [1] was > 100 µM (inactive); in experiment [15] it was 51.2 µM (inactive); in [2], 98.4 µM (inactive); in [16], > 100 µM (inactive); in experiment [17], > 100 µM (inactive); in [4] it was > 100 µM (inactive). For the same compound, the GI50 in experiment [18] is 29.8 µM (inactive); in [6], 33.7 µM (inactive); in [7] it was 45.9 µM (inactive); in experiment [8], > 100 µM (inactive); in experiment [9] it was > 100 µM (inactive); in experiment [11] it was 22.4 µM (inactive). Moreover, the GI50 in experiment [12] was > 100 µM (inactive); in [13], 98.9 µM (inactive); in experiment [19] it was 39.3 µM (inactive); in experiment [14], 74.3 µM (inactive).
